Molecular target: human H-PGDS (Homo sapiens, UniProt O60760)
Assay: Hematopoietic prostaglandin D synthase (H-PGDS) inhibiting action, [14C]PGH2 to PGD2 conversion, TLC radioassay
Assay type: biochemical
Settings: compound 0.1 μM; inhibition rate relative to solvent control group; [14C] prostaglandin H2 10 μM, 25° C.; read-out: H-PGDS inh. (% at 0.1 μM)
Experimental: The test was carried out according to the method of Urade, Y. et al. (J. Biol. Chem., 262, 3820-3825, (1987)). More specifically, a reaction mixture (49 μL) containing 100 mM Tris-HCl (pH 8.0), 1 mM reduced form glutathione, 0.1 mg/mL γ-globulin, human H-PGDS (q.s.), and a compound (0.1 μM) was preincubated at 25° C. for 5 minutes. A DMSO solution (final concentration: 1%) was added to the solvent control group. Subsequently, 1 μL of [^14C] prostaglandin H2 (final concentration: 10 μM) was added to start the reaction. One minute after the start of the reaction, 250 μL of a reaction stopper solution (diethylether/methanol/1M citric acid (30/4/1)) cooled with ice was added to stop the reaction. After the reaction was stopped, 50 μL of the upper layer portion (organic solvent phase) was applied to a TLC plate and developed at −20° C. for 45 minutes (developing solvent: diethylether/methanol/acetic acid (90/2/1)). After the TLC plate was dried and exposed to an imaging plate for 1 to 24 hours, the radioactivity corresponding to prostaglandin D2 (PGD2) was analyzed using an image analyzer (produced by Fujifilm Corporation). The area (%) occupied by the PGD2 band per lane and the inhibition rate (%) of each Example compound at 0.1 μM relative to the control group in each experiment were calculated.

Chain of human H-PGDS (O60760 whole entry): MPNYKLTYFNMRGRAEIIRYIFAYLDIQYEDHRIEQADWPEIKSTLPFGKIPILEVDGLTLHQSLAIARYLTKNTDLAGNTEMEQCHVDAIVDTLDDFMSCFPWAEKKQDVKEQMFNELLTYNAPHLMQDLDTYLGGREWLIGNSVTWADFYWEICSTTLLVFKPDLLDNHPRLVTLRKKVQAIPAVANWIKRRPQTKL

| Compound | inhibition at 0.1 µM [%] |
| --- | --- |
| O=C(Nc1cnc2ccccc2c1)N1CCC(=Cc2cc(F)ccc2F)CC1 [Example 42, 4-(2,5-difluorobenzylidene)-N-(quinolin-3-yl)piperidine-1-carboxamide] | 61.4 |
| O=C(NC1CCN(C(=O)C(F)F)CC1)N1CCC(=Cc2cc(F)ccc2F)CC1 [Example 43, N-(1-(2,2-difluoroacetyl)piperidin-4-yl)-4-(2,5-difluorobenzylidene)piperidine-1-carboxamide] | 68 |
| O=C(NC1CCN(CC(F)F)CC1)N1CCC(=Cc2cc(F)ccc2F)CC1 [Example 44, 4-(2,5-difluorobenzylidene)-N-(1-(2,2-difluoroethyl)piperidin-4-yl)piperidine-1-carboxamide] | 81 |
| O=C(NC1CCN(C(=O)C2CC2)CC1)N1CCC(=Cc2cc(F)ccc2F)CC1 [Example 45, N-(1-(cyclopropanecarbonyl)piperidin-4-yl)-4-(2,5-difluorobenzylidene)piperidine-1-carboxamide] | 48.8 |
| CC(C)(C)C(=O)N1CCC(NC(=O)N2CCC(=Cc3cc(F)ccc3F)CC2)CC1 [Example 46, 4-(2,5-difluorobenzylidene)-N-(1-pivaloylpiperidin-4-yl)piperidine-1-carboxamide] | 77.3 |
| O=C(NC1CCN(C(=O)c2ccccc2)CC1)N1CCC(=Cc2cc(F)ccc2F)CC1 [Example 47, N-(1-benzoylpiperidin-4-yl)-4-(2,5-difluorobenzylidene)piperidine-1-carboxamide] | 62 |
| CC(C)C(=O)N1CCC(NC(=O)N2CCC(=Cc3cc(F)ccc3F)CC2)CC1 [Example 48, 4-(2,5-difluorobenzylidene)-N-(1-isobutyrylpiperidin-4-yl)piperidine-1-carboxamide] | 65.7 |
| O=C(NC1CCN(C(=O)C2CCCCC2)CC1)N1CCC(=Cc2cc(F)ccc2F)CC1 [Example 49, N-(1-(cyclohexanecarbonyl)piperidin-4-yl)-4-(2,5-difluorobenzylidene)piperidine-1-carboxamide] | 39.6 |
| O=C(NC1CCN(C(=O)C2CCC2)CC1)N1CCC(=Cc2cc(F)ccc2F)CC1 [Example 50, N-(1-(cyclobutanecarbonyl)piperidin-4-yl)-4-(2,5-difluorobenzylidene)piperidine-1-carboxamide] | 59.9 |
| O=C(NC1CCN(C(=O)c2ccccn2)CC1)N1CCC(=Cc2cc(F)ccc2F)CC1 [Example 51, 4-(2,5-difluorobenzylidene)-N-(1-picolinoylpiperidin-4-yl)piperidine-1-carboxamide] | 50 |
| CN(C)C(=O)N1CCC(NC(=O)N2CCC(=Cc3cc(F)ccc3F)CC2)CC1 [Example 52, 4-(4-(2,5-difluorobenzylidene)piperidine-1-carboxamido)-N,N-dimethylpiperidine-1-carboxamide] | 74.6 |
| O=C(NC1CCN(C(=O)C2CCCC2)CC1)N1CCC(=Cc2cc(F)ccc2F)CC1 [Example 53, N-(1-(cyclopentanecarbonyl)piperidin-4-yl)-4-(2,5-difluorobenzylidene)piperidine-1-carboxamide] | 69 |
| O=C(NC1CCN(C(=O)c2cccs2)CC1)N1CCC(=Cc2cc(F)ccc2F)CC1 [Example 54, 4-(2,5-difluorobenzylidene)-N-(1-(thiophene-2-carbonyl)piperidin-4-yl)piperidine-1-carboxamide] | 85.9 |
| Cn1cccc1C(=O)N1CCC(NC(=O)N2CCC(=Cc3cc(F)ccc3F)CC2)CC1 [Example 55, 4-(2,5-difluorobenzylidene)-N-(1-(1-methyl-1H-pyrrole-2-carbonyl)piperidin-4-yl)piperidine-1-carboxamide] | 70.9 |
| O=C(Nc1ccccc1)N1CCC(NC(=O)N2CCC(=Cc3cc(F)ccc3F)CC2)CC1 [Example 56, 4-(2,5-difluorobenzylidene)-N-(1-(phenylcarbamoyl)piperidin-4-yl)piperidine-1-carboxamide] | 59.3 |
| O=C(NC1CCN(C(=O)N2CCCCC2)CC1)N1CCC(=Cc2cc(F)ccc2F)CC1 [Example 57, 4-(2,5-difluorobenzylidene)-N-(1-(piperidine-1-carbonyl)piperidin-4-yl)piperidine-1-carboxamide] | 62.3 |
| O=C(Nc1ncc(C(=O)N2CCOCC2)s1)N1CCC(=Cc2cc(F)ccc2F)CC1 [Example 58, 4-(2,5-difluorobenzylidene)-N-(5-(morpholine-4-carbonyl)thiazol-2-yl)piperidine-1-carboxamide] | 80.8 |
| O=C(NC1CCN(C(=O)c2cscn2)CC1)N1CCC(=Cc2cc(F)ccc2F)CC1 [Example 59, 4-(2,5-difluorobenzylidene)-N-(1-(thiazole-4-carbonyl)piperidin-4-yl)piperidine-1-carboxamide] | 76.8 |

| Compound | inhibition at 0.1 µM [%] |
| --- | --- |
| O=C(NC1CCN(C(=O)c2ccccc2F)CC1)N1CCC(=Cc2cc(F)ccc2F)CC1 [Example 60, 4-(2,5-difluorobenzylidene)-N-(1-(2-fluorobenzoyl)piperidin-4-yl)piperidine-1-carboxamide] | 67.1 |
| O=C(NC1CCN(C(=O)c2cccc(F)c2)CC1)N1CCC(=Cc2cc(F)ccc2F)CC1 [Example 61, 4-(2,5-difluorobenzylidene)-N-(1-(3-fluorobenzoyl)piperidin-4-yl)piperidine-1-carboxamide] | 67.7 |
| Cc1cccnc1C(=O)N1CCC(NC(=O)N2CCC(=Cc3cc(F)ccc3F)CC2)CC1 [Example 62, 4-(2,5-difluorobenzylidene)-N-(1-(3-methylpicolinoyl)piperidin-4-yl)piperidine-1-carboxamide] | 54.2 |
| Cc1ccnc(C(=O)N2CCC(NC(=O)N3CCC(=Cc4cc(F)ccc4F)CC3)CC2)c1 [Example 63, 4-(2,5-difluorobenzylidene)-N-(1-(4-methylpicolinoyl)piperidin-4-yl)piperidine-1-carboxamide] | 64.7 |
| O=C(Nc1ccccn1)N1CCC(NC(=O)N2CCC(=Cc3cc(F)ccc3F)CC2)CC1 [Example 64, 4-(2,5-difluorobenzylidene)-N-(1-(pyridin-2-ylcarbamoyl)piperidin-4-yl)piperidine-1-carboxamide] | 51 |
| O=C(Nc1nccs1)N1CCC(NC(=O)N2CCC(=Cc3cc(F)ccc3F)CC2)CC1 [Example 65, 4-(2,5-difluorobenzylidene)-N-(1-(thiazol-2-ylcarbamoyl)piperidin-4-yl)piperidine-1-carboxamide] | 55.4 |
| O=C(NC1CCN(C(=O)c2cccc(F)n2)CC1)N1CCC(=Cc2cc(F)ccc2F)CC1 [Example 66, 4-(2,5-difluorobenzylidene)-N-(1-(6-fluoropicolinoyl)piperidin-4-yl)piperidine-1-carboxamide] | 68.6 |
| O=C(Nc1ccon1)N1CCC(NC(=O)N2CCC(=Cc3cc(F)ccc3F)CC2)CC1 [Example 67, 4-(2,5-difluorobenzylidene)-N-(1-(isoxazol-3-ylcarbamoyl)piperidin-4-yl)piperidine-1-carboxamide] | 51.7 |
| O=C(Nc1ccc(OCc2ccccc2)cc1)N1CCC(=Cc2ccccn2)CC1 [Example 68, N-(4-(benzyloxy)phenyl)-4-(pyridin-2-ylmethylene)piperidine-1-carboxamide] | 59.8 |
| O=C(Nc1ccc(OCc2ccccc2)cc1)N1CCC(=Cc2cc(F)ccc2F)CC1 [Example 69, N-(4-(benzyloxy)phenyl)-4-(2,5-difluorobenzylidene)piperidine-1-carboxamide] | 51.3 |
| O=C(Nc1ccc(Oc2ncccn2)cc1)N1CCC(=Cc2cc(F)ccc2F)CC1 [Example 70, 4-(2,5-difluorobenzylidene)-N-(4-(pyrimidin-2-yloxy)phenyl)piperidine-1-carboxamide] | 84.2 |
| O=C(Nc1ccc(Nc2ccccc2)cc1)N1CCC(=Cc2ccccn2)CC1 [Example 71, N-(4-(phenylamino)phenyl)-4-(pyridin-2-ylmethylene)piperidine-1-carboxamide] | 62.9 |
| O=C(Nc1ccc(Nc2ccccc2)cc1)N1CCC(=Cc2cc(F)ccc2F)CC1 [Example 72, 4-(2,5-difluorobenzylidene)-N-(4-(phenylamino)phenyl)piperidine-1-carboxamide] | 68.7 |
| O=C(Nc1ccccc1)Nc1ccc(NC(=O)N2CCC(=Cc3cc(F)ccc3F)CC2)cc1 [Example 73, 4-(2,5-difluorobenzylidene)-N-(4-(3-phenylureido)phenyl)piperidine-1-carboxamide] | 71 |
| O=C(Nc1ccc(NC(=O)N2CCC(=Cc3cc(F)ccc3F)CC2)cc1)c1ccccn1 [Example 74, N-(4-(4-(2,5-difluorobenzylidene)piperidine-1-carboxamido)phenyl)picolinamide] | 70.9 |
| O=C(Nc1ccc(NC(=O)N2CCC(=Cc3cc(F)ccc3F)CC2)cc1)c1cscn1 [Example 75, N-(4-(4-(2,5-difluorobenzylidene)piperidine-1-carboxamido)phenyl)thiazole-4-carboxamide] | 71.2 |
| O=C(Nc1ccc(NC(=O)N2CCC(=Cc3cc(F)ccc3F)CC2)cc1)c1ccsc1 [Example 76, 4-(2,5-difluorobenzylidene)-N-(4-(thiophene-3-carboxamido)phenyl)piperidine-1-carboxamide] | 79.4 |

From patent publication US9181183B2, “Prostaglandin D synthase inhibitory piperidine compounds” (Taiho Pharmaceutical Co., Ltd., priority 2010, dated 2015)
